The values that follow are results of earlier work, collected in publication PMC7019903 (Viruses, 2020).

In the data set the test system is HTNV. The settings on record: read-out: EC50 against HTNV; cited from earlier work.

By EC50 is commonly meant the concentration that produces a half-maximal response. On to `NC(=O)c1nc(F)c[nH]c1=O` [Favipiravir], for which the EC50 is 151 µM. With `C#Cc1ncn([C@@H]2O[C@H](CO)[C@@H](O)[C@H]2O)n1` [ETAR, 1-beta-d-ribofuranosyl-3-ethynyl-[1,2,4] triazole], the EC50 is 10 µM.
